Results from patent publication US12116388B2, “Amylin receptor agonists” (Novo Nordisk A/S, priority 2022, dated 2024).
Starred links: 1 amine or outer side, 2 acyl side, 3 side chain; linkers in the order of their positions; H or OH if unused. Residues, ends and D or L forms follow the SMILES beside them. Groups on a side chain read outwards from the residue. *: point of attachment. C20 diacid = O=C(O)CCCCCCCCCCCCCCCCCCC(=O)*; C18 diacid = O=C(O)CCCCCCCCCCCCCCCCC(=O)*; γGlu = O=C(O)[C@H](CCC(=O)[*:2])N[*:1]

Columns and labels:
[1] = molecular target: T1, human amylin receptor (hAMYR3) (Homo sapiens, UniProt O60896+P30988); test: Human amylin receptor (hAMYR3) in vitro potency assay, CRE-luciferase reporter in BHK cells; format: cell-based; details: BHK hAMYR3/CRE-Luc cells, 3 hours incubation, assay buffer with 1% ovalbumin
T1 construct: host or cells: BHK (Baby Hamster Kidney), Hollex-1 cell line further transfected with RAMP3
T1 sequence (O60896 24-148, one chain of several): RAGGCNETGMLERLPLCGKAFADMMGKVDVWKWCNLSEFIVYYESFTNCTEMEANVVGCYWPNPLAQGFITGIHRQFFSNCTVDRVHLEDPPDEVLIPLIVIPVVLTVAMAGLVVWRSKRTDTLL
Source text: (§1) Activation of hAMYR3 leads to increased cellular concentrations of cAMP. Consequently, transcription is activated by promotors containing multiple copies of the CAMP response element (CRE). It is thus possible to measure hAMYR3 activity using a CRE-luciferase reporter gene introduced into Baby Hamster Kidney (BHK) cells co-expressing the hAMYR3.
A BHK cell line was stably transfected with the human calcitonin receptor (a) and a CRE-responsive luciferase (CRE-Luc) reporter gene according to methods known to the person skilled in the art (Hollex-1 cell line, obtained from Zymogenetics described in U.S. Pat. No. 5,622,839). The cell line was further transfected with human receptor modifying protein 3 (RAMP3) using standard methods. This turns the human calcitonin receptor into a human amylin-3(a) receptor.
(§2) Cells stocks were prepared by culturing of the stably transfected BHK hAMYR3/CRE-Luc cell line in growth medium consisting of DMEM (Gibco, 31966-021) supplemented with 10% FBS (Gibco, 16140-071), 1% Pen/Strep (Gibco, 15140-122), 0.5 mg/mL Geneticin (Gibco, 10131-027), 0.4 mg/mL Hygromycin (Invitrogen, 10687010) and 250 nM Methotrexate (Sigma, A6770). Cells at approximately 80-90% confluence were washed once with PBS (Gibco 14190-094) and loosened from the cell flasks with Versene (Gibco, 15040-033) or TrypLE™ (Gibco, 12605-010). After centrifugation, the cell pellet was dissolved and diluted to approximately 2.5×10E6 cells/mL in Recovery™ Cell Culture Freezing Medium (Gibco, 12648-010). Cells were aliquoted and stored at −180° C. until use.
(§3) The assay buffer consisted of DMEM without phenol red (Gibco, 11880-028) supplemented with 1× GlutaMAX (Gibco, 35050-038), 10 mM HEPES (Gibco, 15630-056) and 1% (w/v) ovalbumin (Sigma, A5503).
(§4) To perform the assay, BHK hAMYR3/CRE-Luc cells were thawed, washed once in PBS and seeded in 40 μL growth medium in a white 384-well culture plate (PerkinElmer, 6007688) at a cell density of 4.000 cells/well on the day before the experiment. The plate was incubated over night at 37° C. in 5% CO2. On the day of the assay, cells were washed once in assay buffer. Serial dilutions (7-fold dilutions, 7 concentrations Pr. compound and one well containing only assay buffer) of comparator compounds and amylin analogues were performed in assay buffer often starting from approximately 10 nM in 96-well plates and 30 μL of each concentration added to the 384-well assay plate with cells. The assay plate was incubated for 3 hours at 37° C. in 5% CO2 after which 30 μL SteadyLite Plus (PerkinElmer, 6066759) was added to each well. The assay plate was sealed, incubated at room temperature with gentle shaking for 5 minutes followed by 30 minutes incubation without shaking while protected from light. Luminescence was detected on a luminescence plate reader e.g. a Synergy 2 (BioTek).

[2] = molecular target: T2, human calcitonin receptor (hCTR) (Homo sapiens, UniProt P30988); test: Human calcitonin receptor (hCTR) in vitro potency assay, CRE-luciferase reporter in BHK cells; format: cell-based; details: BHK hCTR/CRE-Luc cells, 3 hours incubation, assay buffer with 1% ovalbumin; read-out: hCalcR potency, EC50
T2 construct: host or cells: BHK (Baby Hamster Kidney), Hollex-1 cell line
T2 sequence (P30988 25-474): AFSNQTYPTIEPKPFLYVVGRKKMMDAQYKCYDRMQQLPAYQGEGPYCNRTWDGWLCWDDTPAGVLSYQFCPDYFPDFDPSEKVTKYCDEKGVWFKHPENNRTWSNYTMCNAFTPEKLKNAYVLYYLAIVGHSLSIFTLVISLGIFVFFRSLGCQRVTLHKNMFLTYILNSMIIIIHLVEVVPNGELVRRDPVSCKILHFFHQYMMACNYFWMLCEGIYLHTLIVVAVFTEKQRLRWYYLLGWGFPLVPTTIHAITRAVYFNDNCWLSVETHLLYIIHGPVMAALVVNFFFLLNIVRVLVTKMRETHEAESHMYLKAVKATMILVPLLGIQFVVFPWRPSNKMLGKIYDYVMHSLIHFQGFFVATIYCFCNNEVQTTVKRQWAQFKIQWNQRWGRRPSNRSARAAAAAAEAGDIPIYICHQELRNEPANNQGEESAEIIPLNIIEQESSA
Source text: as §1, with “hCTR” for “hAMYR3”, “CAMP.” for “cAMP.”, “hCTR.” for “hAMYR3.”
A BHK cell line was stably transfected with the human calcitonin receptor (a) and a CRE-responsive luciferase (CRE-Luc) reporter gene according to methods known to the person skilled in the art (Hollex-1 cell line, obtained from Zymogenetics described in U.S. Pat. No. 5,622,839).
as §2, with “hCTR/CRE-Luc” for “hAMYR3/CRE-Luc”, “10131-027)” for “10131-027), 0.4 mg/mL Hygromycin (Invitrogen, 10687010)”
as §3
as §4, with “hCTR/CRE-Luc” for “hAMYR3/CRE-Luc”

| Compound | EC50 [1] | EC50 [2] |
| --- | --- | --- |
| CC[C@H](C)[C@H](NC(=O)[C@H](CCCCNC(=O)CC[C@H](NC(=O)CCCCCCCCCCCCCCCCC(=O)O)C(=O)O)NC(=O)CNC(=O)[C@H](Cc1ccccc1)NC(=O)[C@H](CC(N)=O)NC(=O)[C@H](CC(=O)O)NC(=O)[C@H](CO)NC(=O)[C@H](CO)NC(=O)[C@H](Cc1c[nH]cn1)NC(=O)[C@H](Cc1c[nH]cn1)NC(=O)[C@H](CC(C)C)NC(=O)[C@H](Cc1ccccc1)NC(=O)[C@H](CCC(=O)O)NC(=O)[C@H](C)NC(=O)[C@H](CC(C)C)NC(=O)[C@H](CCCNC(=N)N)NC(=O)[C@H](CCC(N)=O)NC(=O)[C@@H](NC(=O)[C@H](CCC(N)=O)NC(=O)[C@H](C)NC(=O)[C@@H](NC(=O)[C@H](CO)NC(=O)[C@H](CC(C)C)NC(=O)[C@H](CCC(N)=O)NC(=O)[C@H](CO)NC(=O)[C@H](C)NC(C)=O)[C@@H](C)O)[C@@H](C)O)C(=O)N[C@@H](CC(C)C)C(=O)N1CCC[C@H]1C(=O)N1CCC[C@H]1C(=O)N[C@H](C(=O)N[C@@H](CC(=O)O)C(=O)N[C@H](C(=O)NCC(=O)N[C@@H](CO)C(=O)N[C@@H](CC(N)=O)C(=O)N[C@H](C(=O)N1CCC[C@H]1C(N)=O)[C@@H](C)O)C(C)C)[C@@H](C)O [Compound 18, N^1-acetyl,N{Epsilon-25}-[(4S)-4-carboxy-4-(17-carboxyheptadecanoylamino)butanoyl]-[Ala1,Ser2,Gln3,Leu4,Ser5,Ala7,Gln8,Glu14,His17,Asp21,Lys25,Pro28,Pro29,Asp31,Pro37]-human amylin] (Ac-ASQLSTAQTQRLAEFLHHSSDNFGK([γGlu-C18 diacid])ILPPTDVGSNTP-NH2) | 1.38 pM | 1.19 pM |
| CC[C@H](C)[C@H](NC(=O)[C@H](C)NC(=O)CNC(=O)[C@H](Cc1ccccc1)NC(=O)[C@@H]1CCCN1C(=O)[C@H](CC(=O)O)NC(=O)[C@H](CO)NC(=O)[C@H](CO)NC(=O)[C@H](Cc1c[nH]cn1)NC(=O)[C@H](Cc1c[nH]cn1)NC(=O)[C@H](CC(C)C)NC(=O)[C@H](Cc1ccccc1)NC(=O)[C@H](CCC(=O)O)NC(=O)[C@H](C)NC(=O)[C@H](CC(C)C)NC(=O)[C@H](CCCNC(=N)N)NC(=O)[C@H](CCC(N)=O)NC(=O)[C@@H](NC(=O)[C@H](CCC(N)=O)NC(=O)[C@H](C)NC(=O)[C@@H](NC(=O)[C@H](CO)NC(=O)[C@H](CC(C)C)NC(=O)[C@H](Cc1c[nH]cn1)NC(=O)CNC(=O)[C@H](C)NC(=O)CC[C@H](NC(=O)CCCCCCCCCCCCCCCCCCC(=O)O)C(=O)O)[C@@H](C)O)[C@@H](C)O)C(=O)N1CCC[C@H]1C(=O)N[C@@H](CO)C(=O)N[C@@H](CO)C(=O)N[C@H](C(=O)N[C@@H](CC(=O)O)C(=O)N[C@H](C(=O)NCC(=O)N1CCC[C@H]1C(=O)N[C@@H](CC(=O)O)C(=O)N[C@H](C(=O)N1CCC[C@H]1C(N)=O)[C@@H](C)O)C(C)C)[C@@H](C)O [Compound 7, N^1-[(4S)-4-carboxy-4-(19-carboxynonadecanoylamino)butanoyl]-[Ala1,Gly2,His3,Leu4,Ser5,Ala7,Gln8,Glu14,His17,Asp21,Pro22,Pro27,Asp31,Pro34,Asp35,Pro37]-human amylin] ({C20 diacid-γGlu}-AGHLSTAQTQRLAEFLHHSSDPFGAIPSSTDVGPDTP-NH2) | 1.68 pM | 1.81 pM |
| CC[C@H](C)[C@H](NC(=O)[C@H](C)NC(=O)CNC(=O)[C@H](Cc1ccccc1)NC(=O)[C@@H]1CCCN1C(=O)[C@H](CC(=O)O)NC(=O)[C@H](CO)NC(=O)[C@H](CO)NC(=O)[C@H](Cc1c[nH]cn1)NC(=O)[C@H](Cc1c[nH]cn1)NC(=O)[C@H](CC(C)C)NC(=O)[C@H](Cc1ccccc1)NC(=O)[C@H](CCC(=O)O)NC(=O)[C@H](C)NC(=O)[C@H](CC(C)C)NC(=O)[C@H](CCCNC(=N)N)NC(=O)[C@H](CCC(N)=O)NC(=O)[C@@H](NC(=O)[C@H](CCC(N)=O)NC(=O)[C@H](C)NC(=O)[C@@H](NC(=O)[C@H](CO)NC(=O)[C@H](CC(C)C)NC(=O)[C@H](Cc1c[nH]cn1)NC(=O)[C@H](CO)NC(=O)[C@H](C)NC(=O)CC[C@H](NC(=O)CCCCCCCCCCCCCCCCC(=O)O)C(=O)O)[C@@H](C)O)[C@@H](C)O)C(=O)N1CCC[C@H]1C(=O)N[C@@H](CO)C(=O)N[C@@H](CO)C(=O)N[C@H](C(=O)N[C@@H](CC(=O)O)C(=O)N[C@H](C(=O)NCC(=O)N1CCC[C@H]1C(=O)N[C@@H](CC(=O)O)C(=O)N[C@H](C(=O)N[C@@H](Cc1ccc(O)cc1)C(N)=O)[C@@H](C)O)C(C)C)[C@@H](C)O [Compound 36, N^1-[(4S)-4-carboxy-4-(17-carboxyheptadecanoylamino)butanoyl]-[Ala1,Ser2,His3,Leu4,Ser5,Ala7,Gln8,Glu14,His17,Asp21,Pro22,Pro27,Asp31,Pro34,Asp35]-human amylin] ({C18 diacid-γGlu}-ASHLSTAQTQRLAEFLHHSSDPFGAIPSSTDVGPDTY-NH2) | 2.96 pM | 3.22 pM |
